Results as given in paper PMC8869629, “Comparison of Various Solvent Extracts and Major Bioactive Components from Portulaca oleracea for Antioxidant, Anti-Tyrosinase, and Anti-α-Glucosidase Activities” (Antioxidants, 2022).
In brackets after ≈: the same amount, converted by molar mass.

Experiments:
[1] = Superoxide anion radical scavenging assay (PMS-NADH-NBT); format: biochemical; details: isolated components (Table 5); mean ± SD (n = 3)
Experimental: Superoxide anion radical (O2^•−) scavenging activity was described earlier with slight changes. […] The reaction was initiated by adding 50 μL of NADH (468 μM) solution to the mixture. After incubating at room temperature for 5 min, the activity of samples was determined by calculating the decrease in absorbance measured at 560 nm by the following equation,
Superoxide anion radical scavenging activity (%) = (A0 − A1)/A0 × 100, where A1 is the absorbance of the test sample and A0 is the absorbance of the control.
IC50 values for the tested activities were determined by linear regression of the percentage of remaining superoxide anion radicals against sample concentration.

[2] = DPPH radical scavenging assay; format: biochemical; details: mean ± SD (n = 3)
Experimental: The DPPH radical scavenging assay was determined by the reference method.

[3] = Hydroxyl radical scavenging assay; format: biochemical; details: mean ± SD (n = 3)
Experimental: The samples were evaluated for hydroxyl radical scavenging activity based on the previously described method.

[4] = ABTS cation radical scavenging assay; format: biochemical; details: mean ± SD (n = 3)
Experimental: The ABTS cation radical scavenging assay was carried out using the reference method.

α-glucosidase = α-glucosidase (Saccharomyces cerevisiae, UniProt P53341); test: biochemical
Experimental: α-Glucosidase inhibitory activity was established in accordance with the described method with slight modifications. In brief, 100 μL of different concentrations of the sample, 380 μL of p-nitro-phenyl-α-D-glucopyranoside (p-NPG) (0.53 mM), and 20 μL of α-Glucosidase solution (1 units/mL) were mixed in 0.1 M potassium phosphate buffer (pH 6.8). After incubating at 37 °C for 20 min, 500 μL of sodium carbonate (0.1 M) was added in order to quench the reaction. The anti-α-glucosidase activity of the sample was determined by calculating the decrease in absorbance measured at 405 nm by the following equation,
Inhibition (%) = (A0 − A1)/A0 × 100, where A1 is the absorbance of the test sample and A0 is the absorbance of the control.

α-glucosidase, sequence (P53341 whole entry): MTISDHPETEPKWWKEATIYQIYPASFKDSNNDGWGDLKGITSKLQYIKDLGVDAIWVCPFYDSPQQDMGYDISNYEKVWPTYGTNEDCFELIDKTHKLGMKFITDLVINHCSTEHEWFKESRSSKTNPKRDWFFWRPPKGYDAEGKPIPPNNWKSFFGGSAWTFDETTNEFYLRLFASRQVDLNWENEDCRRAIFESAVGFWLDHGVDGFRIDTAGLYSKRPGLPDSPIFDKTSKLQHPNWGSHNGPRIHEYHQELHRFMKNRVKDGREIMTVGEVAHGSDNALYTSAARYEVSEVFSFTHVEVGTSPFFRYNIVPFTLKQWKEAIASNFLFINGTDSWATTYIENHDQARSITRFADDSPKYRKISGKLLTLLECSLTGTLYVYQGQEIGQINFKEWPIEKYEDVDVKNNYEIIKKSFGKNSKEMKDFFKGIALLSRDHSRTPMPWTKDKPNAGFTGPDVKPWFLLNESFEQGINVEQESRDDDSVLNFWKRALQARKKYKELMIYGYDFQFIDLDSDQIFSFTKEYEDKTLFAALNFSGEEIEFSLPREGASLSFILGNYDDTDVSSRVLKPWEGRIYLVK

Compound | IC50 Superoxide [1] [µg/mL] | IC50 DPPH ([2]; isolated components (Table 5)) [µg/mL] | IC50 Hydroxyl ([3]; isolated components (Table 5)) [µg/mL] | IC50 ABTS ([4]; isolated components (Table 5)) [µg/mL] | IC50 (α-glucosidase) [µM] | IC50 DPPH ([2]; solvent extracts (Table 2)) [µg/mL] | IC50 Hydroxyl ([3]; solvent extracts (Table 2)) [µg/mL] | IC50 ABTS ([4]; solvent extracts (Table 2)) [µg/mL]
O=c1c(O)c(-c2ccc(O)c(O)c2)oc2cc(O)cc(O)c12 [Quercetin, quercetin] | 44.08 ± 3.07 (≈ 146 µM) | 1.07 ± 0.13 (≈ 3.54 µM) | 9.75 ± 4.39 (≈ 32.3 µM) | 11.46 ± 1.82 (≈ 37.9 µM) |  |  |  | 
COc1cc(/C=C/C(=O)O)ccc1O [trans-Ferulic acid, trans-ferulic acid] | 541.00 ± 26.95 (≈ 2790 µM) | 3.81 ± 0.18 (≈ 19.6 µM) | 68.26 ± 65.58 (≈ 352 µM) | 24.47 ± 16.45 (≈ 126 µM) | > 2060 |  |  | 
O=C(O)/C=C/c1ccc(O)cc1 [p-Coumaric acid, p-coumaric acid] | 256.00 ± 16.27 (≈ 1560 µM) | 204.13 ± 9.78 (≈ 1240 µM) | 60.70 ± 69.24 (≈ 370 µM) | 27.01 ± 6.12 (≈ 165 µM) | > 2440 |  |  | 
O=c1c(O)c(-c2ccc(O)cc2)oc2cc(O)cc(O)c12 [Kaempferol, kaempferol] | 541.00 ± 18.47 (≈ 1890 µM) | 2.32 ± 0.17 (≈ 8.11 µM) | 11.46 ± 5.60 (≈ 40 µM) | 8.75 ± 0.90 (≈ 30.6 µM) |  |  |  | 
Cc1cc(C(C)(C)C)c(O)c(C(C)(C)C)c1 [BHT, Butylated hydroxytoluene, reference compound] |  | 31.04 ± 2.12 (≈ 141 µM) | 58.62 ± 2.75 (≈ 266 µM) | 19.34 ± 2.18 (≈ 87.8 µM) |  | 39.88 ± 1.30 (≈ 181 µM) | 65.90 ± 1.23 (≈ 299 µM) | 20.34 ± 1.69 (≈ 92.3 µM)
O=C(O)/C=C/c1ccc(O)c(O)c1 [Caffeic acid, caffeic acid] | 57.34 ± 7.44 (≈ 318 µM) | 0.81 ± 0.09 (≈ 4.5 µM) | 153.04 ± 85.84 (≈ 849 µM) | 27.85 ± 18.95 (≈ 155 µM) | 942 |  |  | 
O=C(/C=C/c1ccc(O)c(O)c1)O[C@H](Cc1ccc(O)c(O)c1)C(=O)O [Rosmarinic acid, rosmarinic acid] | 61.62 ± 6.43 (≈ 171 µM) | 1.87 ± 0.09 (≈ 5.19 µM) | 6.56 ± 4.77 (≈ 18.2 µM) | 27.11 ± 14.00 (≈ 75.2 µM) | 514 |  |  | 
